Values after ≈ are worked out from the molar mass of the structure shown.
Assays:
[1] = tested on: MRSA ATCC 43300; assay: MIC, CO-ADD broth microdilution, MRSA; format: cell-based, methicillin-resistant S. aureus; settings: Staphylococcus aureus; MRSA ATCC 43300; mean (n = 2); read-out: MIC MRSA
Experimental: (§1) The susceptibility of bacterial strains S. aureus (ATCC 25923), E. coli (ATCC 25922), and P. aeruginosa (ATCC 27853 or PAO1) to antibiotics and compounds was determined using reported protocols. Additional antimicrobial evaluation against MRSA (ATCC 43300), Klebsiella pneumoniae (ATCC 700603), A. baumannii (ATCC 19606), Candida albicans (ATCC 90028), and Cryptococcus neoformans (ATCC 208821) was undertaken at the Community for Open Antimicrobial Drug Discovery at The University of Queensland (Australia) according to their standard protocols as reported previously. […]
(§2) 2.3. Antimicrobial Assays
(§3) The susceptibility of bacterial strains S. aureus (ATCC 25923), E. coli (ATCC 25922), and P. […]
(§4) baumannii (ATCC 19606), Candida albicans (ATCC 90028), and Cryptococcus neoformans (ATCC 208821) was undertaken at the Community for Open Antimicrobial Drug Discovery at The University of Queensland (Australia) according to their standard protocols as reported previously. For antimicrobial assays, the tested strains were cultured in either Luria broth (LB) (In Vitro Technologies, USB75852), nutrient broth (NB) (Becton Dickson, 234000), or MHB at 37 °C overnight. A sample of culture was then diluted 40-fold in fresh MHB and incubated at 37 °C for 1.5−2 h. The compounds were serially diluted 2-fold across the wells of 96-well plates (Corning 3641, non-binding surface), with compound concentrations ranging from 0.015 to 64 µg/ mL, and plated in duplicate. The resultant mid-log phase cultures were diluted to the final concentration of 1 × 10^6 CFU/mL; then, 50 µL was added to each well of the compound-containing plates, giving a final compound concentration range of 0.008 to 32 µg/mL and a cell density of 5 × 10^5 CFU/mL. All plates were then covered and incubated at 37 °C for 18 h. Resazurin was added at 0.001% final concentration to each well and incubated for 2 h before MICs […]
(§5) For C. neoformans, resazurin was added at 0.006% final concentration to each well and incubated for a further 3 h before MICs were determined by measuring […]
(§6) Colistin and vancomycin were used as positive bacterial inhibitor standards for Gram-negative and Gram-positive bacteria, respectively. Fluconazole was used as a positive fungal inhibitor standard for C. albicans and C. neoformans. The antibiotics were provided in […], with 3 above and 3 below its MIC value, and plated into the first 8 wells of column 23 of the 384-well NBS plates. The quality control (QC) of the assays was determined by the antimicrobial controls and the Z'-factor (using positive and negative controls). Each plate was deemed to fulfil the quality criteria (pass QC) if the Z'- […]
(§7) inhibition at their highest concentration, and no growth inhibition at their lowest concentration.
(§8) 2.4. Determination of the MICs of Antibiotics in the Presence of Synergizing Compounds

[2] = tested on: P. aeruginosa ATCC 27853; assay: Antibiotic enhancement of doxycycline; format: cell-based; settings: for Dox/P.a.: concentration required to restore doxycycline activity: doxycycline at 4.5 µM (2 µg/mL); for Dox/P.a.: fold change, ratio between intrinsic MIC of test compound and combination MIC: doxycycline at 4.5 µM
Experimental: Antibiotic restoring enhancer concentrations were determined using reported protocols (see Supplementary File).
Briefly, restoring enhancer concentrations were determined with an inoculum of 5x10^5 CFU in 200
µL of MHB containing two-fold serial dilutions of each derivative in the presence of doxycycline at 4.5
The lowest concentration of the polyamine
These measurements were independently repeated in triplicate. […]

[3] = tested on: S. aureus ATCC 25923; assay: MIC, broth dilution, S. aureus; format: cell-based; settings: Staphylococcus aureus, ATCC25923, mean (n = 3)
Experimental: as §1, §2
(§9) The susceptibility of bacterial strains S. aureus (ATCC 25923), E. coli (ATCC 25922), and P. aeruginosa (ATCC 27853 or PAO1) to antibiotics and compounds was determined in microplates using the standard broth dilution method in accordance with the recommendations of the Comité de l’AntibioGramme de la Société Française de Microbiologie (CA-SFM). Briefly, the minimal inhibitory concentrations (MICs) were determined with an inoculum of 10^5 CFU in 200 µL of Mueller–Hinton broth (MHB) containing two-fold serial dilutions of each drug. The MIC was defined as the lowest […]
(§10) determine all MICs, the measurements were independently repeated in triplicate. Additional antimicrobial evaluation against MRSA (ATCC 43300), Klebsiella pneumoniae (ATCC 700603), A. baumannii (ATCC 19606), Candida albicans (ATCC 90028), and Cryptococcus neoformans (ATCC 208821) was undertaken at the Community for Open Antimicrobial Drug Discovery at The University of Queensland (Australia) according to their standard protocols as reported previously. […]
as §5, §6, §7, §8

[4] = tested on: K. pneumoniae ATCC 700603; assay: MIC, CO-ADD broth microdilution, K. pneumoniae; format: cell-based, Klebsiella pneumoniae; settings: for MIC: Klebsiella pneumoniae, ATCC700603, mean (n = 2)
Experimental: as §1, §2, §3, §4, §5, §6, §7, §8

[5] = tested on: C. albicans ATCC 90028; assay: MIC, CO-ADD antifungal assay, C. albicans; format: cell-based, Candida albicans; settings: for MIC: Candida albicans, ATCC90028, mean (n = 2)
Experimental: as §1, §2, §3
baumannii (ATCC 19606), Candida albicans (ATCC 90028), and Cryptococcus neoformans (ATCC 208821) was undertaken at the Community for Open Antimicrobial Drug Discovery at The University of Queensland (Australia) according to their standard protocols as reported previously. […]
For the antifungal assay, fungi strains were cultured for 3 days on YPD agar at 30 °C. A yeast suspension of 1 × 106 to 5 × 10^6 CFU/mL was prepared from five colonies. These stock suspensions were diluted with yeast nitrogen base (YNB) (Becton Dickinson, 233520) broth to a final concentration of 2.5 × 10^3 CFU/mL. The compounds were serially diluted 2-fold across the wells of 96-well plates (Corning 3641, non-binding surface), with compound concentrations ranging from 0.015 to 64 µg/mL and final volumes of 50 µL, plated in duplicate. Then, 50 µL of the fungi suspension that was previously prepared in YNB broth to the final concentration of 2.5 × 10^3 CFU/mL was added to each well of the compound-containing plates, giving a final compound concentration range of 0.008 to 32 µg/mL. Plates were covered and incubated at 35 °C for 36 h without shaking. C. albicans MICs were determined by measuring the absorbance at OD530. For C. neoformans, resazurin was added at 0.006% final concentration to each well and incubated for a further 3 h before MICs were determined by measuring […]
as §6, §7, §8

[6] = tested on: P. aeruginosa PAO1; assay: MIC, broth dilution, P. aeruginosa PAO1; format: cell-based; settings: mean (n = 3); for MIC: Pseudomonas aeruginosa
Experimental: as §1, §2, §9, §10, §5, §6, §7, §8

[7] = tested on: E. coli ATCC 25922; assay: MIC, broth dilution, E. coli; format: cell-based, Escherichia coli; settings: for MIC: Escherichia coli, ATCC25922, mean (n = 3)
Experimental: as §1, §2, §9, §10

| MIC [1] | MIC [3] | MIC [4] | MIC K.p. ([4]; mean (n = 2)) | MIC [5] | MIC C.a. ([5]; mean (n = 2)) | MIC [6] | MIC P.a. [6] | MIC [7] | MIC E.c. ([7]; mean (n = 3)) | Dox/P.a.: fold change, ratio between intrinsic MIC of test compound and combination MIC [2] | SMILES | Dox/P.a.: concentration required to restore doxycycline activity [2] |
| --- | --- | --- | --- | --- | --- | --- | --- | --- | --- | --- | --- | --- |
| ≤ 0.51 µM | 3.12 µM | > 64.8 µM | no activity | > 64.8 µM | no activity | 800 µM | no activity | 200 µM (≈ 98.8 µg/mL) | no activity | – | C=C[C@]1(C)C[C@@H](OC(=O)CSCCN(CC)CC)[C@]2(C)[C@H](C)CC[C@]3(CCC(=O)[C@H]32)[C@@H](C)[C@@H]1O [Compound 2, Tiamulin, reference compound] | > 405 µM |
| 23.2 µM | 18.1 µM | > 23.2 µM | – | > 23.2 µM | – | 72.5 µM | – | 18.1 µM | – | 4 | C=C[C@]1(C)C[C@@H](OC(=O)CNCCCNCCCCNCCCNCC(=O)O[C@@H]2C[C@@](C)(C=C)[C@@H](O)[C@H](C)[C@]34CCC(=O)[C@H]3[C@@]2(C)[C@H](C)CC4)[C@]2(C)[C@H](C)CC[C@]3(CCC(=O)[C@H]32)[C@@H](C)[C@@H]1O.O=C(O)C(F)(F)F.O=C(O)C(F)(F)F.O=C(O)C(F)(F)F.O=C(O)C(F)(F)F [Compound 9a, N^1,N^1′-(Butane-1,4-diyl)bis(N^3-(2-(((3aR,4R,5R,7S,8S,9R,9aS,12R)-8-hydroxy-4,7,9,12-tetramethyl-3-oxo-7-vinyldecahydro-4,9a-propanocyclopenta [8]annulen-5-yl)oxy)-2-oxoethyl)propane-1,3-diaminium) 2,2,2-trifluoroacetate] | 18.1 µM |
| ≤ 0.18 µM | 17.8 µM | > 22.7 µM | – | > 22.7 µM | – | 142 µM | – | 8.88 µM | – | 4 | C=C[C@]1(C)C[C@@H](OC(=O)CNCCCNCCCCCCNCCCNCC(=O)O[C@@H]2C[C@@](C)(C=C)[C@@H](O)[C@H](C)[C@]34CCC(=O)[C@H]3[C@@]2(C)[C@H](C)CC4)[C@]2(C)[C@H](C)CC[C@]3(CCC(=O)[C@H]32)[C@@H](C)[C@@H]1O.O=C(O)C(F)(F)F.O=C(O)C(F)(F)F.O=C(O)C(F)(F)F.O=C(O)C(F)(F)F [Compound 9b, N^1,N^1′-(Hexane-1,6-diyl)bis(N^3-(2-(((3aR,4R,5R,7S,8S,9R,9aS,12R)-8-hydroxy-4,7,9,12-tetramethyl-3-oxo-7-vinyldecahydro-4,9a-propanocyclopenta [8]annulen-5-yl)oxy)-2-oxoethyl)propane-1,3-diaminium) 2,2,2-trifluoroacetate] | 35.5 µM |
| ≤ 0.18 µM | 17.6 µM | > 22.5 µM | – | > 22.5 µM | – | > 141 µM | – | 35.2 µM | – | 1 | C=C[C@]1(C)C[C@@H](OC(=O)CNCCCNCCCCCCCNCCCNCC(=O)O[C@@H]2C[C@@](C)(C=C)[C@@H](O)[C@H](C)[C@]34CCC(=O)[C@H]3[C@@]2(C)[C@H](C)CC4)[C@]2(C)[C@H](C)CC[C@]3(CCC(=O)[C@H]32)[C@@H](C)[C@@H]1O.O=C(O)C(F)(F)F.O=C(O)C(F)(F)F.O=C(O)C(F)(F)F.O=C(O)C(F)(F)F [Compound 9c, N^1,N^1′-(Heptane-1,7-diyl)bis(N^3-(2-(((3aR,4R,5R,7S,8S,9R,9aS,12R)-8-hydroxy-4,7,9,12-tetramethyl-3-oxo-7-vinyldecahydro-4,9a-propanocyclopenta [8]annulen-5-yl)oxy)-2-oxoethyl)propane-1,3-diaminium) 2,2,2-trifluoroacetate] | 141 µM |
| 5.57 µM | 34.8 µM | > 22.3 µM | – | > 22.3 µM | – | > 139 µM | – | 70 µM | – | 1 | C=C[C@]1(C)C[C@@H](OC(=O)CNCCCNCCCCCCCCNCCCNCC(=O)O[C@@H]2C[C@@](C)(C=C)[C@@H](O)[C@H](C)[C@]34CCC(=O)[C@H]3[C@@]2(C)[C@H](C)CC4)[C@]2(C)[C@H](C)CC[C@]3(CCC(=O)[C@H]32)[C@@H](C)[C@@H]1O.O=C(O)C(F)(F)F.O=C(O)C(F)(F)F.O=C(O)C(F)(F)F.O=C(O)C(F)(F)F [Compound 9d, N^1,N^1′-(Octane-1,8-diyl)bis(N^3-(2-(((3aR,4R,5R,7S,8S,9R,9aS,12R)-8-hydroxy-4,7,9,12-tetramethyl-3-oxo-7-vinyldecahydro-4,9a-propanocyclopenta [8]annulen-5-yl)oxy)-2-oxoethyl)propane-1,3-diaminium) 2,2,2-trifluoroacetate] | 139 µM |
| ≤ 0.17 µM | 4.27 µM | > 21.9 µM | – | 10.9 µM | – | > 88 µM | – | 4.27 µM | – | 2 | C=C[C@]1(C)C[C@@H](OC(=O)CNCCCNCCCCCCCCCCNCCCNCC(=O)O[C@@H]2C[C@@](C)(C=C)[C@@H](O)[C@H](C)[C@]34CCC(=O)[C@H]3[C@@]2(C)[C@H](C)CC4)[C@]2(C)[C@H](C)CC[C@]3(CCC(=O)[C@H]32)[C@@H](C)[C@@H]1O.O=C(O)C(F)(F)F.O=C(O)C(F)(F)F.O=C(O)C(F)(F)F.O=C(O)C(F)(F)F [Compound 9e, N^1,N^1′-(Decane-1,10-diyl)bis(N^3-(2-(((3aR,4R,5R,7S,8S,9R,9aS,12R)-8-hydroxy-4,7,9,12-tetramethyl-3-oxo-7-vinyldecahydro-4,9a-propanocyclopenta [8]annulen-5-yl)oxy)-2-oxoethyl)propane-1,3-diaminium) 2,2,2-trifluoroacetate] | 34.2 µM |

Source: article PMC10673369, “Preliminary SAR of Novel Pleuromutilin–Polyamine Conjugates” (Microorganisms, 2023)
